Results on two substances are retold here after article PMC12153356, “An antisense oligomer conjugate with unpredicted bactericidal activity against Fusobacterium nucleatum” (mBio, 2025).

Assay [1] deals with F. nucleatum subsp. nucleatum ATCC 23726 (FNN23). The assay can be described thus: Determination of bactericidal effect by CFU spot assay. It is filed as cell-based, Fusobacterium nucleatum subsp. nucleatum ATCC 23726. The following applies: 10 µM, 1 × 10^5 CFU/mL in MHB, spotting on BHI agar plates, up to 96 h; three replicates. As for the experimental part:
To investigate the bactericidal effects of PNAs an o.n. culture of FNN23 grown in ColB was diluted 1:50 in fresh ColB and grown to OD600 0.5. This culture was then diluted 1:2,500 to 1 × 10^5 CFU/mL in MHB, and 190 µL of the culture was dispensed into a transparent 96-well plate (Nunc, Thermo Fischer Scientific) together with 10 µL of respective 20× PNA stock or water and incubated at 37°C with 237 cpm shaking every 20 min. At the respective time points, 100 µL was taken out of the well, a 1:10 serial dilution series was prepared with 900 µL anoxic 1× PBS, and 5 µL of each dilution was spotted on BHI plates for CFU determination. Plates were incubated for 3 days at 37°C before taking out the plates of the anaerobic chamber for CFU counting.

Assay [2] has as its system F. nucleatum subsp. polymorphum ATCC 10953 (FNP). Kind of assay: Growth inhibition assay. The format is cell-based, Fusobacterium nucleatum subsp. polymorphum ATCC 10953. The following applies: 10 µM, MHB, 1 × 10^5 CFU/mL input, three replicates. The text has this: (§1) The following fusobacterial strains were used in this study: Fusobacterium nucleatum subsp. nucleatum ATCC 23726 (FNN23) acquired from the American Type Culture Collection (ATCC), F. nucleatum subsp. nucleatum ATCC 25586 (FNN25), F. nucleatum subsp. vincentii ATCC 49256 (FNV), and F. nucleatum subsp. polymorphum ATCC 10953 (FNP) acquired from the German Collection of Microorganisms and Cell Culture (DSMZ), F. nucleatum subsp. animalis 7_1 (FNA) and F. periodonticum 2_1_31 (FPE) both received as a kind gift from E. Allen-Vercoe (University of Guelph, Canada). All strains were routinely grown at 37°C in 80:10:10 (N2:H2:CO2) anaerobic conditions on 2% agar supplemented BHI plates (BHI, 1% [wt:vol] dried yeast extract, 1% [vol:vol] 50% sterile-filtered glucose solution, 5 µg/mL of hemin; 1% [vol:vol] fetal bovine serum) from frozen 20% glycerol stocks kept at −80°C. For liquid growth, the strains were cultured in Columbia broth (ColB; BD Difco). Precultures were prepared 24 h before inoculating the working culture at a 1:50 dilution in fresh ColB until OD600 0.5 was reached. Cultures were then diluted in non-cation adjusted Mueller-Hinton Broth (MHB, BD Difco) to the desired CFU/mL number. P. gingivalis (DSM 20709) was purchased from DSMZ and grown at 37°C in anaerobic conditions as mentioned above on 2% agar supplemented BHI+ plates (BHI, 1% [wt:vol] dried yeast extract, 1% [vol:vol] 50% sterile filtered glucose solution, 5 µg/ml of hemin; 10% [vol:vol] fetal bovine serum; and 1 µg/mL vitamin K3) for 4 days. […]
(§2) To determine the MIC value, broth microdilutions were performed according to the standard protocol with some modifications ([119]). […] Bacterial growth was monitored by measuring OD600 every 20 min with constant shaking in a plate reader (Biotek) under the normal atmospheric environment or positioned in the anaerobic chamber with double orbital shaking every 20 min prior to each measurement with 237 cpm at 37°C for 120 h.

The test system of assay [3] is F. periodonticum 2_1_31 (FPE). The assay can be described thus: Growth inhibition assay. The format is cell-based, Fusobacterium periodonticum 2_1_31. Particulars: 10 µM, MHB, 1 × 10^5 CFU/mL input, three replicates.
Text: as §1, §2

The test system of assay [4] is P. gingivalis (DSM 20709). The assay can be described thus: Growth inhibition assay. The following applies: 10 µM, MHB, 1 × 10^5 CFU/mL input, anaerobic, OD600 for 144 h. It is filed as cell-based, Porphyromonas gingivalis.
Text: as §1, with “reached.” for “reached. Cultures were then diluted in non-cation adjusted Mueller-Hinton Broth (MHB, BD Difco) to the desired CFU/mL number. P. gingivalis (DSM 20709) was purchased from DSMZ and grown at 37°C in anaerobic conditions as mentioned above on 2% agar supplemented BHI+ plates (BHI, 1% [wt:vol] dried yeast extract, 1% [vol:vol] 50% sterile filtered glucose solution, 5 µg/ml of hemin; 10% [vol:vol] fetal bovine serum; and 1 µg/mL vitamin K3) for 4 days.”
To determine the MIC value, broth microdilutions were performed according to the standard protocol with some modifications ([119]). […] […] a plate reader (Biotek) under the normal atmospheric environment or positioned in the anaerobic chamber with double orbital […]

A further assay has as its system E. coli Nissle 1917. Kind of assay: Growth inhibition assay. It is filed as cell-based, Escherichia coli Nissle 1917. Particulars: 10 µM, MHB, 1 × 10^5 CFU/mL input, aerobic, 24 h. How it is done: Aerobic bacterial culture was conducted with E. coli K12 MG1655 (provided by D. Lee), E. coli Nissle 1917, and S. enterica serovar Typhimurium SL1344 (provided by D. Bumann, Biocenter Basel, Switzerland). The strains were streaked on lysogeny broth plates, incubated o.n. at 37°C and cultured in non-cation-adjusted MHB with aeration at 37°C and 220 rpm constant shaking.
To determine the MIC value, broth microdilutions were performed according to the standard protocol with some modifications ([119]). An overnight bacterial culture was diluted in a fresh ColB medium and grown to OD600 0.5 (mid-exponential phase). Fusobacteria were then diluted 1:2,500 or 1:250 in fresh MHB to obtain 1 × 10^5 CFU/mL or 1 × 10^6 CFU/mL as indicated. To determine the growth inhibition of P. gingivalis, an o.n. culture grown in BHI+ was diluted 1:1,500 in MHB to obtain 1 × 10^5 CFU/mL. E. coli K12, E. coli Nissle 1917, and S. enterica o.n. cultures grown in MHB were diluted 1:1,800 in fresh MHB to obtain 1 × 10^5 CFU/mL. […] Bacterial growth was monitored by measuring OD600 every 20 min with constant shaking in a plate reader (Biotek) under the normal atmospheric environment or positioned in the anaerobic chamber with double orbital shaking every 20 min prior to each measurement with 237 cpm at 37°C for 120 h.

Regarding “(RXR)4XB-GACATAATTGT [FUS79, non-targeting (RXR)4XB-PNA 11-mer control, (RXR)4XB-…]”, in assay [1], the “Bactericidal effect (viable cells, CFU) on FNN23” value was “no visible CFUs detected on the agar plate after 96 h”. In addition, the “Growth inhibition of FNP” value in assay [2] is “inhibited the growth”. The “Growth inhibition of FPE” value in assay [3] was “inhibited the growth”. For the same substance, the “Growth inhibition of P. gingivalis” value in assay [4] was “no growth inhibition”. Also, the “Growth inhibition of E. coli Nissle 1917” value with E. coli Nissle 1917 was “no growth inhibition”.

In the case of RXRRXRRXRRXRXB [PNAscr], the “Bactericidal effect (viable cells, CFU) on FNN23” value in assay [1] was “no bactericidal effect”. Moreover, the “Growth inhibition of FNP” value in assay [2] is “growth retardation compared with the water control”. Also, the “Growth inhibition of FPE” value in assay [3] is given as “growth retardation compared with the water control”. In addition, the “Growth inhibition of P. gingivalis” value in assay [4] is reported as “no growth inhibition”. The “Growth inhibition of E. coli Nissle 1917” value in the assay on E. coli Nissle 1917 is “no growth inhibition”.
